Test system: human epidermoid keratinocytes in culture (HaCaT) exposed to UV radiation
Test: Evaluation of the antioxidant potential: DCFH-DA test
Type: cell-based
Conditions: HaCaT keratinocytes pretreated 24 hours; DCFH-DA 20 μM 30 minutes; 2 J/cm^2 UVA; compound used as 30% solution in water/dipropylene glycol (70/30); preliminary tests
Method: Evaluation of the Antioxidant Potential: DCFH-DA Test
The sodium salt of 3-hydroxy-2-pentylcyclopentane-acetic acid is used as a 30% solution in a water/dipropylene glycol mixture (70/30).
In a model of human epidermoid keratinocytes in culture (HaCaT) exposed to UV radiation, the global oxidative stress effect of the said compound after oxidation of a fluorescent probe (DCFH-DA) is measured.
The use of DCFH-DA as a marker of intracellular global oxidative stress is based on its physicochemical properties. It is a nonionic apolar molecule that is capable of diffusing across cell membranes. Once inside the cell, DCFH-DA is hydrolysed by intracellular esterases to a non-fluorescent compound: DCFH or 2,7-dichlorofluorescine. In the presence of activated oxygen species (H2O2; OH°), DCFH is rapidly oxidized to a highly fluorescent compound: DCF or 2,7-dichlorofluorescein.
HaCaT keratinocytes pretreated with the active agents for 24 hours are rinsed with PBS+ and incubated in the presence of DCFH-DA [20 μM] for 30 minutes at 37° C. in the dark.
After removal of the probe, the cells are exposed to 2 J/cm^2 of UVA (WG335 filter) in the presence of 1 ml/well of PBS+. The DCF fluorescence is evaluated immediately after the UVA exposure, by spectrofluorimetry (excitation 480 nm; emission 530 nm).

CCCCCC1C(O)CCC1CC(=O)[O-].[Na+] (stereo not shown) [sodium salt of 3-hydroxy-2-pentylcyclopentaneacetic acid]
antioxidant potential / protection against oxidative stress (DCF fluorescence): antioxidant potential with protection against oxidative stress

From patent US8679513B2, “Cosmetic use of a jasmonic acid derivative for treating the hair and the scalp” (L'Oreal, priority 2009, dated 2014)
